We go through 2 compounds from article PMC5877348, “Presence of a Haloarchaeal Halorhodopsin-Like Cl^− Pump in Marine Bacteria” (Microbes and Environments, 2018).

Experiment [1] concerns the target T1, RmHR (Rubricoccus marinus halorhodopsin) (Rubricoccus marinus, UniProt A0A259U296). As to the kind of experiment: biochemical. Set-up: gene BSZ36_14690.
In experiment [2] the target is T1, RmHR (Rubricoccus marinus halorhodopsin). As to the kind of experiment: normal-phase HPLC of extracted retinal oxime. Set-up: gene BSZ36_14690; full-length codon-optimised synthetic gene in pET21a, C-terminal His6; expressed in E. coli, DDM-solubilised, purified. To be noted: covalent (Schiff base); 1 M NaCl, 25°C, dark or illuminated at 540 nm; retinal supplied during expression. In kind it is binding.

T1 sequence (A0A259U296 entry or part of it): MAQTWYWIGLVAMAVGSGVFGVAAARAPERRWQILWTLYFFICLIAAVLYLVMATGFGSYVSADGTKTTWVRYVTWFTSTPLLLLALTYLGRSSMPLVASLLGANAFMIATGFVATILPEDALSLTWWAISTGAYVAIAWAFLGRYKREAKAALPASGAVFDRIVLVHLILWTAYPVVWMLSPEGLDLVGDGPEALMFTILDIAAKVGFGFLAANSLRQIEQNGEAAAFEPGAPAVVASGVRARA

As usually defined, the Kd is the free concentration of one partner at which half of the binding sites on the other are occupied at equilibrium, for simple one-to-one binding. For `Cl` [Cl^−], the dissociation constant Kd in experiment [1] turned out to be 7.6 ± 1.7 mM.
Turning to `CC1=C(/C=C/C(C)=C/C=C/C(C)=C/C=O)C(C)(C)CCC1` [all-trans-retinal], the “normal-phase HPLC of extracted retinal oxime” value in experiment [2] is reported as “RmHR predominantly possesses all-trans retinal as a chromophore”.
